ChEMBL document CHEMBL3045367, “Preparation and testing of homocubyl amines as therapeutic NMDA receptor antagonists” (Med Chem Res, 2013)

test: Displacement of [3H](+)-MK-801 from N-methyl D-aspartate receptor in Rattus norvegicus (rat) forebrain membranes after 90 min; design: species or system Membrane

| SMILES | IC50 [µM] | Ki [µM] |
| --- | --- | --- |
| NC1C2C3C4C1C1C2C3C41 (stereo not given) [Homocubyl-9-amine] | 843 | 615 |
| NC12C3C4C5C3C1C5C42 (stereo not given) [Cubylamine] | 259 | 189 |
| NC1C2C3CC4C5CC(C1C53)C42 (stereo not given) [Trishomocubyl-4-amine] | 89 | 65 |

The remaining compounds from weak to strong by IC50, led by results:

| IC50 [µM] | Ki [µM] | SMILES |
| --- | --- | --- |
| 152 | 111 | NC1C2C3CC4C2C2C1C3C42 (stereo not given) [bishomocubyl-10-amine] |
| 1.56 | 1.14 | CC12CC3CC(C)(C1)CC(N)(C3)C2 [MEMANTINE] |
